In US9951065B2 (Gilead Sciences, Inc., priority 2015, dated 2018):
pEC50: −log10 of the molar value.

molecular target: T1, IDO1 (Homo sapiens, UniProt P14902); assay: Cell-based (HeLa) assay for measurement of IDO1 inhibition (kynurenine levels in supernatant after IFNγ induction); settings: HeLa cells, IFNγ-induced IDO1, kynurenine in supernatant after 48 hour incubation; geometric mean of a minimum of four determinations
T1 construct: HeLa cells were treated with a test compound in the presence of IFNγ, which induces IDO1 expression; host or cells: H1-HeLa cells, IDO1 induced with IFNγ
In short: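 IDO1 activity is read as kynurenine released into the medium, detected with Ehrlich's reagent (p-dimethylaminobenzaldehyde) at 480 nm after TCA treatment. HeLa cells were exposed 48 h to compounds in 0.5% DMSO alongside IFNγ induction. Values normalized to no-IFNγ and IFNγ controls; four-parameter EC50 given as geometric mean of ≥4 determinations.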

T1 sequence (P14902 whole entry): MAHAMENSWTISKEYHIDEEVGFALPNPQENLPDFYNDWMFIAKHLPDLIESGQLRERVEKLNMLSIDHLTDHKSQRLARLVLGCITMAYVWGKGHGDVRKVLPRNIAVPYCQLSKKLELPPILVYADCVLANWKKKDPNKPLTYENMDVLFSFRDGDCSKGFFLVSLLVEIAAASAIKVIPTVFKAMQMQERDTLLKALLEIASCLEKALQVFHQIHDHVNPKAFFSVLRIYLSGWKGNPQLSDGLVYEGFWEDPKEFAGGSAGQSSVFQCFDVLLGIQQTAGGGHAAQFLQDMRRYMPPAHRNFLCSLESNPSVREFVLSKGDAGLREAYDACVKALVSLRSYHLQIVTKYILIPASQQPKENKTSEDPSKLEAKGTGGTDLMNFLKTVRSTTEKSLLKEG

| pEC50 | Structure (SMILES) |
| --- | --- |
| 5.92 | CN(C)CCNc1nc2nccc(C(=NO)Nc3ccc(F)c(Cl)c3)c2[nH]1 [Example 215, N-(3-chloro-4-fluorophenyl)-2-((2-(dimethylamino)ethyl)amino)-N′-hydroxy-1H-imidazo[4,5-b]pyridine-7-carboximidamide] |
| 6.14 | Nc1nc2c(F)ccc(/C(=N/O)Nc3ccc(F)c(C(F)(F)F)c3)c2[nH]1 [Example 21, 2-Amino-4-fluoro-N-(4-fluoro-3-(trifluoromethyl)phenyl)-N′-hydroxy-1H-benzo[d]imidazole-7-carboximidamide] |
| 5.55 | O/N=C(\Nc1ccc(F)c(Cl)c1)c1ccnc2nc(CCN3CCOCC3)[nH]c12 [Example 191, N-(3-Chloro-4-fluorophenyl)-N′-hydroxy-2-(2-morpholinoethyl)-1H-imidazo[4,5-b]pyridine-7-carboximidamide] |
| 6.50 | O/N=C(\Nc1ccc(F)c(C(F)(F)F)c1)c1ccnc2nc[nH]c12 [Example 83, N-(4-Fluoro-3-(trifluoromethyl)phenyl)-N′-hydroxy-1H-imidazo[4,5-b]pyridine-7-carboximidamide] |
| 5.42 | COCCN(C)CCNc1nc2nccc(/C(=N/O)Nc3ccc(F)c(Cl)c3)c2[nH]1 [Example 219, N-(3-chloro-4-fluorophenyl)-N′-hydroxy-2-((2-((2-methoxyethyl)(methyl)amino)ethyl)amino)-1H-imidazo[4,5-b]pyridine-7-carboximidamide] |
| 5.65 | O/N=C(\Nc1ccc(C(F)(F)F)cc1)c1ccnc2nc[nH]c12 [Example 91, N′-Hydroxy-N-(4-(trifluoromethyl)phenyl)-1H-imidazo[4,5-b]pyridine-7-carboximidamide] |
| 6.34 | CN(C)CCc1nc2c(/C(=N/O)Nc3ccc(F)c(Br)c3)cc(F)c(F)c2[nH]1 [Example 54, N-(3-Bromo-4-fluorophenyl)-2-(2-(dimethylamino)ethyl)-6,7-difluoro-N′-hydroxy-1H-benzo[d]imidazole-4-carboximidamide] |
| 5.94 | O/N=C(\Nc1ccc(F)c(Cl)c1)c1cc(F)c(F)c2nc(NCCCNc3ccccn3)[nH]c12 [Example 297, N-(3-chloro-4-fluorophenyl)-4,5-difluoro-N′-hydroxy-2-((3-(pyridin-2-ylamino)propyl)amino)-1H-benzo[d]imidazole-7-carboximidamide] |
| 5.59 | O/N=C(\Nc1ccc(F)c(Cl)c1)c1ccnc2nc(CNCC3CCCOC3)[nH]c12 (centres unmarked) [Example 129, N-(3-Chloro-4-fluorophenyl)-N′-hydroxy-2-((((tetrahydro-2H-pyran-3-yl)methyl)amino)methyl)-1H-imidazo[4,5-b]pyridine-7-carboximidamide] |
| 5.41 | COc1cccc(N/C(=N\O)c2ccnc3nc[nH]c23)c1 [Example 92, N′-Hydroxy-N-(3-methoxyphenyl)-1H-imidazo[4,5-b]pyridine-7-carboximidamide] |
| < 5.00 | O/N=C(\Nc1ccc(F)c(Cl)c1)c1ccnc2nc(N3CC[C@H](O)C3)[nH]c12 [Example 280, (S)—N-(3-chloro-4-fluorophenyl)-N′-hydroxy-2-(3-hydroxypyrrolidin-1-yl)-1H-imidazo[4,5-b]pyridine-7-carboximidamide] |
| 5.03 | O/N=C(\Nc1ccc(F)c(Cl)c1)c1cc(F)c(F)c2nc(N3CCOCC3)[nH]c12 [Example 32, N-(3-Chloro-4-fluorophenyl)-4,5-difluoro-N′-hydroxy-2-morpholino-1H-benzo-[d]imidazole-7-carboximidamide] |
| < 5.00 | CN1CCOCC1CNc1nc2nccc(/C(=N/O)Nc3ccc(F)c(Cl)c3)c2[nH]1 (centres unmarked) [Example 282, N-(3-chloro-4-fluorophenyl)-N′-hydroxy-2-(((4-methylmorpholin-3-yl)methyl)amino)-1H-imidazo[4,5-b]pyridine-7-carboximidamide] |
| 5.52 | O/N=C(\Nc1ccc(F)c(Cl)c1)c1ccnc2nc(CNCCCN3CCOCC3)[nH]c12 [Example 131, N-(3-Chloro-4-fluorophenyl)-N′-hydroxy-2-(((3-morpholinopropyl)amino)methyl)-1H-imidazo[4,5-b]pyridine-7-carboximidamide] |
| 6.30 | CN(C)CCc1nc2nccc(/C(=N/O)Nc3cccc(Br)c3)c2[nH]1 [Example 265, N-(3-bromophenyl)-2-(2-(dimethylamino)ethyl)-N′-hydroxy-1H-imidazo[4,5-b]pyridine-7-carboximidamide] |
| 5.96 | O/N=C(\Nc1ccc(F)c(Cl)c1)c1ccnc2nc(NCC(F)(F)F)[nH]c12 [Example 157, N-(3-Chloro-4-fluorophenyl)-N′-hydroxy-2-((2,2,2-trifluoroethyl)amino)-1H-imidazo[4,5-b]pyridine-7-carboximidamide] |
| 6.11 | O/N=C(\Nc1ccc(F)c(Cl)c1)c1ccnc2nc(NCCc3ccccc3)[nH]c12 [Example 156, N-(3-Chloro-4-fluorophenyl)-N′-hydroxy-2-(phenethylamino)-1H-imidazo[4,5-b]pyridine-7-carboximidamide] |
| 5.43 | O/N=C(\Nc1ccc(F)c(Cl)c1)c1ccnc2nc(CNCc3ccncc3)[nH]c12 [Example 133, N-(3-Chloro-4-fluorophenyl)-N′-hydroxy-2-(((pyridin-4-ylmethyl)amino)methyl)-1H-imidazo[4,5-b]pyridine-7-carboximidamide] |
| 5.15 | O/N=C(\Nc1ccc(F)c(Cl)c1)c1ccnc2nc(C(O)C3CC3)[nH]c12 (centres unmarked) [Example 174, N-(3-Chloro-4-fluorophenyl)-2-(cyclopropyl(hydroxy)methyl)-N′-hydroxy-1H-imidazo[4,5-b]pyridine-7-carboximidamide] |
| 5.87 | COCCCNCc1nc2nccc(/C(=N/O)Nc3ccc(F)c(Cl)c3)c2[nH]1 [Example 120, N-(3-Chloro-4-fluorophenyl)-N′-hydroxy-2-(((3-methoxypropyl)amino)methyl)-1H-imidazo[4,5-b]pyridine-7-carboximidamide] |
| 5.63 | COCc1nc2nccc(/C(=N/O)Nc3ccc(F)c(Cl)c3)c2[nH]1 [Example 110, N-(3-Chloro-4-fluorophenyl)-N′-hydroxy-2-(methoxymethyl)-1H-imidazo[4,5-b]pyridine-7-carboximidamide] |
| 5.63 | O/N=C(\Nc1ccc(F)c(Cl)c1)c1ccnc2nc(CNCC3CCCCO3)[nH]c12 (centres unmarked) [Example 127, N-(3-Chloro-4-fluorophenyl)-N′-hydroxy-2-((((tetrahydro-2H-pyran-2-yl)methyl)amino)methyl)-1H-imidazo[4,5-b]pyridine-7-carboximidamide] |
| 5.42 | O/N=C(\Nc1ccc(F)c(Cl)c1)c1ccnc2nc(NCCNCC(F)F)[nH]c12 [Example 230, N-(3-chloro-4-fluorophenyl)-2-((2-((2,2-difluoroethyl)amino)ethyl)amino)-N′-hydroxy-1H-imidazo[4,5-b]pyridine-7-carboximidamide] |
| 5.17 | O/N=C(\Nc1ccc(F)c(Cl)c1)c1ccc(F)c2nc(NCCN3CCOCC3)[nH]c12 [Example 34, N-(3-Chloro-4-fluorophenyl)-4-fluoro-N′-hydroxy-2-((2-morpholinoethyl)amino)-1H-benzo[d]imidazole-7-carboximidamide] |

same assay, conditions: HeLa cells, IFNγ-induced IDO1, kynurenine in supernatant, 48 hour incubation; geometric mean of a minimum of four determinations

| pEC50 | Structure (SMILES) |
| --- | --- |
| 6.10 | CN(CCc1nc2nccc(/C(=N/O)Nc3ccc(F)c(Cl)c3)c2[nH]1)Cc1ccccc1 [Example 396, 2-(2-(benzyl(methyl)amino)ethyl)-N-(3-chloro-4-fluorophenyl)-N′-hydroxy-1H-imidazo[4,5-b]pyridine-7-carboximidamide] |
| 5.50 | CN(C)[C@H]1CCCC[C@@H]1Nc1nc2c(F)c(F)cc(/C(=N/O)Nc3ccc(F)c(Cl)c3)c2[nH]1 [Example 444, N-(3-chloro-4-fluorophenyl)-2-(((1S,2S)-2-(dimethylamino)cyclohexyl)amino)-4,5-difluoro-N′-hydroxy-1H-benzo[d]imidazole-7-carboximidamide] |
| 6.36 | CC(CNc1nc2c(F)c(F)cc(/C(=N/O)Nc3ccc(F)c(Cl)c3)c2[nH]1)CN(C)C (centres unmarked) [Example 352, N-(3-chloro-4-fluorophenyl)-2-((3-(dimethylamino)-2-methylpropyl)amino)-4,5-difluoro-N′-hydroxy-1H-benzo[d]imidazole-7-carboximidamide] |
| 5.92 | CCN(CC)[C@H]1COC[C@@H]1Nc1nc2nccc(C(=NO)Nc3ccc(F)c(Cl)c3)c2[nH]1 [Example 480, N-(3-chloro-4-fluorophenyl)-2-(((3R,4R)-4-(diethylamino)tetrahydrofuran-3-yl)amino)-N′-hydroxy-1H-imidazo[4,5-b]pyridine-7-carboximidamide] |
| 5.86 | CC(CN(C)C)Nc1nc2c(F)c(F)cc(/C(=N/O)Nc3ccc(F)c(Cl)c3)c2[nH]1 (centres unmarked) [Example 378, N-(3-chloro-4-fluorophenyl)-2-((1-(dimethylamino)propan-2-yl)amino)-4,5-difluoro-N′-hydroxy-1H-benzo[d]imidazole-7-carboximidamide] |
| 6.12 | CNCCNc1nc2c(F)c(F)cc(/C(=N/O)Nc3ccc(F)c(Cl)c3)c2[nH]1 [Example 395, N-(3-chloro-4-fluorophenyl)-4,5-difluoro-N′-hydroxy-2-((2-(methylamino)ethyl)amino)-1H-benzo[d]imidazole-7-carboximidamide] |
| 5.97 | Nc1nc2cc(F)cc(/C(=N/O)Nc3ccc(F)c(Cl)c3)c2[nH]1 [Example 370, 2-amino-N-(3-chloro-4-fluorophenyl)-5-fluoro-N′-hydroxy-1H-benzo[d]imidazole-7-carboximidamide] |
| 6.08 | CC(CNc1nc2c(F)c(F)cc(/C(=N/O)Nc3ccc(F)c(Cl)c3)c2[nH]1)N1CCOCC1 (centres unmarked) [Example 377, N-(3-chloro-4-fluorophenyl)-4,5-difluoro-N′-hydroxy-2-((2-morpholinopropyl)amino)-1H-benzo[d]imidazole-7-carboximidamide] |
